Experimental data published in patent US9241964B2, “Composition from Sphaeranthus indicus and Garcinia mangostana for the control of metabolic syndrome” (LAILA NUTRACEUTICALS, priority 2009, dated 2016).

Experiments:
[1] = system: Matrix Metalloproteinase-1 (MMP-1); assay: Inhibition of MMP-1 production in PMA induced A2058 cells (ELISA); format: cell-based; conditions: PMA induced A2058 human melanoma cells, 24 h, supernatant ELISA
Procedure: A2058 cells were induced with 50 nM PMA in absence or presence of different concentrations of LI/DD-II/054A/01 for 24 h as indicated. Secreted MMP-1 concentration in the cell free culture supernatants was measured using MMP-1 ELISA Development Kit (R&D System, Minneapolis, Minn., USA). The MMP-1 concentration in culture supernatants was estimated quantitatively from the standard curve generated using known concentrations of MMP-1. Percentage of MMP-1 inhibition at each concentration of test compound was calculated from the formula: {(Conc. of MMP-1 in PMA induced−Conc. of MMP-1 in the test well)×100}[…]Conc. of MMP-1 in PMA induced wells.
MMP-1 was evaluated in PMA induced human melanoma cells, A2058. Briefly, the cells were cultured in Dulbecco's Modified Eagles Medium (DMEM) with 2 mM Glutamine, 100 U/mL penicillin, […] streptomycin and 10% fetal bovine serum (Hyclone, Logan, Utah). Five thousand cells per well were seeded into a 96-well cell culture plate (Corning, USA) one day before the experiment. The culture media was replaced with fresh DMEM containing 10% fetal bovine serum. […] The MMP-1 concentration in culture supernatant was estimated quantitatively by interpolating the optical densities into the standard curve generated from known concentrations of MMP-1. […]

perilipin = assay: Immunoblot of perilipin in 3T3-L1 adipocytes; format: cell-based, mouse; conditions: immunoblot normalized with actin
Excerpt: The inventors have then evaluated the modulation of metabolic biomarkers those are primarily responsible for the adipogenesis processes, insulin resistance in type 2 diabetes, obesity, metabolic syndrome and other metabolic disorders such as Peroxisome proliferator-activated receptor gamma (PPARγ), CD36, adipocyte fatty acid binding protein 4 (FABP4 or aP2), Perilipin, and beta-3 Adrenergic Receptor (β3AR) during adipogenesis process in 3T3-L1 adipocytes by ethyl actate extract (LI/DD-II/054A/01) of Sphaeranthus indicus and 7-hydroxyfrullanolide (LI054A01) using an immunoblot assay. […] The protein extracts were evaluated by immunoblot assay, and the immuno-reactive bands were developed with West-pico chemiluminescent substrate and the blot images were captured in a Kodak Image Station, normalized with expression of actin.
Experimental protocol: Mouse pre-adipocyte 3T3-L1 cells are maintained in Dulbecco's Modified Eagles Medium (DMEM) supplemented with 2 mM glutamine, 4.5 g/L glucose and 10% fetal bovine serum. […] Protein content was measured in Bradford method by using Coomassie blue dye and cell lysates were stored in aliquots at −80° C. until further use. […]
Inhibition of protein expression of biomarker molecules adipocytes in presence or absence of Sphaeranthus indicus extract LI/DD-II/054A/01 and 7-hydroxyfrullanolide (LI054A01) was evaluated in immunoblot assay. […]

- IC50 of MMP-1 [1]: 1.2 µg/mL
Structure (SMILES): C=C1C(=O)O[C@H]2C3=C(C)CCC[C@]3(C)CC[C@@]12O [LI054A01, 7-α-hydroxy-4,11(13)-eudesmadien-12,6-olide]
- perilipin protein level (perilipin): potently ameliorated
